These results are taken from patent US4885239A, “Rapid differentiation of bacteria using polyether antibiotics” (Eastman Kodak Company, priority 1986, dated 1989).

For one test, the system named is S. aureus. In words: dye formation from RIND VII in presence of calimycin, S. aureus. Type of test: cell-based, Staphylococcus aureus (ATCC 25923). Set-up: key: 0: no dye formation; +/-: faint dye formation; 1+: light dye formation; 2+: moderate dye formation; 3+: strong dye formation; 4+: very strong dye formation. To be noted: calimycin 10^-3 molar, calcium chloride. As for the experimental part:
(§1) gram-negative bacteria Enterobacter cloacae (ATCC 23355), Escherichia coli (ATCC 25922), Proteus vulgaris (ATCC 13315), Klebsiella pneumoniae (ATCC 13883) and Pseudomonas aeruginosa (ATCC 27853), and gram-positive bacteria Staphylococcus aureus (ATCC 25923) and Streptococcus pyogenes (ATCC 19615), and brain heart infusion (BHI) broth from Difco Laboratories (Detroit, Mich.),
(§2) Bacterial suspensions were prepared by growing the cells in BHI to stationary phase overnight at 37° C. P. aeruginosa was grown with agitation. […]
(§3) TERGITOL 7 anionic surfactant was used to differentiate viable bacteria according to the prior art method. […] The amount of dye formed was then determined visually and graded as follows: 0 indicates no dye formation, +/- indicates faint dye formation, 1+ indicates light dye formation, 2+ indicates moderate dye formation, 3+ indicates strong dye formation, and 4+ indicates very strong dye formation.
(§4) Calimycin, a polyether antibiotic, was similarly used with RIND VII in the differentiation of bacteria. Assays were performed as described above, except that 25 μl of 1 molar calcium chloride solution was added to each test solution and the P. aeruginosa response was measured in the presence of 10% yeast extract as the carbon source instead of glucose. […]

In the next test the test system is E. coli (gram -). In words: change in relative fluorescence with water-compatible RIND XXXV (Example 4), E. coli. The conditions noted are these: 37° C., without antibiotic 2539. Type of test: cell-based, Escherichia coli (ATCC 25922). As for the experimental part:
as §1
(§5) Bacterial suspensions were prepared by growing the cells in BHI to stationary phase overnight at 37° C. P. aeruginosa was grown with agitation. About 40 ml of overnight cultures were centrifuged, decanted and washed once with 0.05 molar potassium phosphate buffer or 0.05 molar N-2-hydroxyethylpiperazine-N'-2-ethanesulfonic acid (HEPES) buffer, pH 7.8, and resuspended in buffer.
A dispersion containing a RIND compound was prepared by dissolving RIND VII from Table II above in N,N-dimethylformamide (DMF) at 16 mg compound per ml of solvent. An aliquot (250 μl) of the resulting solution was added to 500 μl of TRITON X-100 surfactant. This mixture was then added dropwise with stirring to 25 ml of 0.05 molar HEPES buffer. A solution containing a water-compatible RIND compound XXXV was prepared by dissolving the compound (16 mg/ml) in N,N-dimethylformamide which had been acidified with a 0.1% sulfuric acid solution.
A solution was prepared from the following components: 100 μl RIND XXXV solution (16 mg/ml acidified N,N-dimethylformamide), 200 μl glucose solution (10% in water), 200 μl trimethyl-1,4-benzoquinone ETA solution (1.5 mg/ml methanol) and 10 ml HEPES buffer.
Test solutions were prepared from the following reagents: 50 μl HEPES buffer, 50 μl polyether antibiotic A23187 (free acid, 0.01 molar in methanol), 10 μl calcium chloride solution (1 molar) (serial dilutions of buffer and antibiotic were performed to obtain various antibiotic concentrations), 50 μl of the appropriate cell suspensions (E. coli, about 10^8 cells/ml and S. aureus, about 10^8 cells/ml) and 200 μl of the RIND solution. Control solutions were prepared as described in Examples 2 and 3.
Relative fluorescence was measured using a standard spectrophotometer modified to read at excitation of 540 nm and emission of 620 nm. The change (Δ) in relative fluorescence was determined after 30 minutes at 37° C. for several concentration levels of antibiotic.

The test system of a further test is S. pyogenes. In words: dye formation from RIND VII in presence of calimycin, S. pyogenes. Type of test: cell-based, Streptococcus pyogenes (ATCC 19615). Further details: key: 0: no dye formation; +/-: faint dye formation; 1+: light dye formation; 2+: moderate dye formation; 3+: strong dye formation; 4+: very strong dye formation. To be noted: calimycin 10^-3 molar, calcium chloride. As for the experimental part:
as §1, §2, §3, §4

In test [1] the test system is S. aureus (gram +). Briefly: inhibition of the reduction of RIND XXXV in dry analytical element (Example 6), S. aureus. It is filed as cell-based, Staphylococcus aureus (ATCC 25923). To be noted: calcium chloride, 30 minutes, 37° C.
The test system of a further test is K. pneumoniae. In words: dye formation from RIND VII in presence of calimycin, K. pneumoniae. Type of test: cell-based, Klebsiella pneumoniae (ATCC 13883). Set-up: key: 0: no dye formation; +/-: faint dye formation; 1+: light dye formation; 2+: moderate dye formation; 3+: strong dye formation; 4+: very strong dye formation. The conditions noted are these: calimycin 10^-3 molar, calcium chloride. Here is the method:
as §1, §2, §3, §4

In test [2] the test system is S. aureus (gram +). In words: change in optical density with tetrazolium salt MTT (Example 5), S. aureus. Type of test: cell-based, Staphylococcus aureus (ATCC 25923). To be noted: 540 nm, 37° C., without antibiotic 0.505. Here is the method: as §1, §5
The reducible compound solution was prepared with 3-(4,5-dimethyl-2-thiazolyl)-2,5-diphenyl-2H-tetrazolium bromide (MTT) (200 μl of 5 mg/ml methanol), 200 μl glucose solution (10% in water), 200 μl trimethyl-1,4-benzoquinone ETA (1.5 mg/ml methanol) and 12 ml of HEPES buffer (0.05 molar, pH 7.8).
Test solutions were prepared with the following: 50 μl HEPES buffer, 50 μl polyether antibiotic A23187 (free acid, 0.01 molar in methanol), 10 μl calcium chloride (1 molar) (serial dilutions of buffer and antibiotic were performed to obtain various antibiotic concentrations), 50 μl of the appropriate cell suspension, E. coli (about 10^8 cells/ml) or S. aureus (about 10^8 cells/ml), and 200 μl of the MTT solution. Control solutions were prepared as described in previous Examples.
Optical density measurements were obtained at 540 nm using a standard spectrophotometer and the change in optical density (ΔOD) was determined after 30 minutes at 37° C. The resulting data are shown in Table VII below for several concentrations of antibiotic. It is clear from the data that the composition of this example was useful for differentiating bacteria.

The subject of a further test is S. faecalis. In words: dye formation from RIND VII in presence of calimycin, S. faecalis. Type of test: cell-based, Streptococcus faecalis (clinical urine isolate). To be noted: calimycin 10^-3 molar, calcium chloride. Set-up: key: 0: no dye formation; +/-: faint dye formation; 1+: light dye formation; 2+: moderate dye formation; 3+: strong dye formation; 4+: very strong dye formation. As for the experimental part:
Streptococcus faecalis was isolated from a clinical urine specimen obtained from a local hospital,
as §5
A dispersion containing a RIND compound was prepared by dissolving RIND VII from Table II above in N,N-dimethylformamide (DMF) at 16 mg compound per ml of solvent. […]
as §3, §4

SMILES strings stand for the structures.

`CNc1ccc2oc(C[C@H]3O[C@@]4(CC[C@H]3C)O[C@H]([C@H](C)C(=O)c3ccc[nH]3)[C@H](C)C[C@H]4C)nc2c1C(=O)O` [calimycin, Calimycin]: the dye formation with S. aureus (15 Minutes) is reported as 0; in the test on S. aureus (30 Minutes), 0; in the test on S. pyogenes (15 Minutes), 0; in the test with S. pyogenes (30 Minutes), 0; in the test with K. pneumoniae (15 Minutes) it was 4+; in the test on K. pneumoniae (30 Minutes), 4+. In addition, the dye formation result with S. faecalis (15 Minutes) and with S. faecalis (30 Minutes) was “+/-” in each case. Also, the “Δ Relative Fluorescence after 30 Min.” value in the test with E. coli (gram -) (antibiotic 1 × 10^-4 molar) was 2804; with E. coli (gram -) (antibiotic 2 × 10^-4 molar) it was 2540; with E. coli (gram -) (antibiotic 4 × 10^-4 molar), 2338; in the test on E. coli (gram -) (antibiotic 8 × 10^-4 molar), 2411. The “Corrected Percent Inhibition” value in the test on S. aureus (gram +) [1] was found to be 70%. Moreover, the “Δ OD after 30 Min.” value in the test on S. aureus (gram +) [2] (antibiotic 1 × 10^-4 molar) turned out to be 0.089; with S. aureus (gram +) [2] (antibiotic 2 × 10^-4 molar) it was 0.096; with S. aureus (gram +) [2] (antibiotic 4 × 10^-4 molar), 0.065; in the test with S. aureus (gram +) [2] (antibiotic 8 × 10^-4 molar) it was 0.028.
